Patent US20240116951A1, “HETEROCYCLIC COMPOUNDS AND USES THEREOF” (Kumquat Biosciences Inc., priority 2022, published 2024)

How the values were obtained:
Format in all cases: binding
KRAS G12S = target: T1, KRAS G12S (Homo sapiens, UniProt P01116, G12S); experiment: HTRF assay of K-Ras G12S interaction with SOS1 (PPI-HTRF); conditions: 5 nM KRAS G12S, read-out: PPI-HTRF-5 nM KRAS G12S
T1 construct: made in house; host or cells: E. coli, e.g. BL21 (DE3)
Source text: (§1) This assay can be also used to assess a selective inhibition or reduction of signaling output of a mutant Ras protein relative to a wildtype, or relative to a different mutant Ras protein. For example, the equilibrium interaction of wildtype Kras or K-Ras mutant (e.g., wildtype or a mutant thereof including those mentioned in Example 4) with SOS1 (e.g., hSOS1) can be assessed as a proxy or an indication for a subject compound's ability to bind and inhibit Ras protein. HTRF assay detects from (i) a fluorescence resonance energy transfer (FRET) donor (e.g., antiGST-Europium) that is bound to GST-tagged K-Ras mutant to (ii) a FRET acceptor (e.g., anti-6His-XL665) bound to a His-tagged hSOS1.
(§2) The assay buffer can contain ˜5 mM HEPES pH 7.4, ˜150 mM NaCl, ˜1 mM DTT, 0.05% BSA and 0.0025% (v/v) Igepal. A Ras working solution is prepared in an assay buffer containing typically a suitable amount of the protein construct (e.g., GST-tagged K-Ras mutant) and the FRET donor (e.g., antiGST-Eu(K) from Cisbio, France). A SOS1 working solution is prepared in an assay buffer containing suitable amount of the protein construct (e.g., His-hSOS1) and the FRET acceptor (e.g., anti-6His-XL665 from Cisbio, France). A suitable amount of the protein construct will depend on the range of activity or range of IC50 values being detected or under investigation. For detecting IC50 within a range of 500 nM, the protein constructs of the same range of molarity can be utilized. […] A fixed volume of DMSO with or without test compound is transferred into a 384-well plate. Ras working solution is added to all wells of the test plate. SOS1 working solution is added to all wells except for those that are subsequently filled the inhibitor control solution. Upon incubation for about 10 minutes or longer, the fluorescence is measured with a M1000Pro plate reader (Tecan) using HTRF detection (excitation 337 nm, emission 1: 620 nm, emission 2: 665 nm). Compounds are tested in duplicates at different concentrations (for example, 10 μM, 2.5 μM, 0.63 μM, 0.16 μM, 0.04 μM, 0.01 μM test compound). The ratiometric data (i.e., emission 2 divided by emission 1) is used to calculate IC50 values against Ras using GraphPad Prism (GraphPad software). Following this general procedure, samples were tested with or without a subject compound disclosed herein including compounds exemplified in Table 1 to assess their abilities to inhibit a mutant K-Ras relative to another mutant K-Ras or wildtype K-Ras. Signaling output measured in terms of IC50 values can be obtained, a ratio of IC50 against one mutant relative to another mutant can be calculated. For instance, a selective reduction of K-Ras G12D signaling output can be evidenced by a ratio greater than one. In particular, a selective reduction of K-Ras G12D signaling relative to K-Ras WT signaling is evidenced as the ratio of IC50 (against K-Ras WT) to IC50 (against K-Ras G12D) is greater than 1.

KRAS G12D = target: T2, KRAS G12D (Homo sapiens, UniProt P01116, G12D); experiment: HTRF assay of K-Ras G12D interaction with SOS1 (PPI-HTRF); conditions: HTRF, 5 nM KRAS G12D; read-out: PPI-HTRF-5 nM KRAS G12D
T2 construct: made in house; host or cells: E. coli, e.g. BL21 (DE3)
T2 sequence (P01116 1-188 isoform P01116-2 G12D): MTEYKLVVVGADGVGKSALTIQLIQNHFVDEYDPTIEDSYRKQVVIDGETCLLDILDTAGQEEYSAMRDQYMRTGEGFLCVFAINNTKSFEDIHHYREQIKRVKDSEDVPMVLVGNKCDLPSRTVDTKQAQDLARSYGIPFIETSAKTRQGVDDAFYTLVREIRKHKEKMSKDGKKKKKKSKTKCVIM
Source text: as §1, §2

KRAS WT = target: T3, KRAS WT (Homo sapiens, UniProt P01116); experiment: HTRF assay of wildtype K-Ras interaction with SOS1 (PPI-HTRF); conditions: HTRF, 5 nM KRAS WT; read-out: PPI-HTRF-5 nM KRAS WT
T3 construct: made in house; host or cells: E. coli, e.g. BL21 (DE3)
T3 sequence (P01116 1-188 isoform P01116-2): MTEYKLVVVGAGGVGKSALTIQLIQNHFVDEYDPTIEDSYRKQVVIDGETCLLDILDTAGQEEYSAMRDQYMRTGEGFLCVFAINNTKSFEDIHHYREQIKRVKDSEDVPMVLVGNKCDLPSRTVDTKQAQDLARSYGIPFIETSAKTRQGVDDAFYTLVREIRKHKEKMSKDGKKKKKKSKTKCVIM
Source text: as §1, §2

T1 sequence (P01116 1-188 isoform P01116-2 G12S): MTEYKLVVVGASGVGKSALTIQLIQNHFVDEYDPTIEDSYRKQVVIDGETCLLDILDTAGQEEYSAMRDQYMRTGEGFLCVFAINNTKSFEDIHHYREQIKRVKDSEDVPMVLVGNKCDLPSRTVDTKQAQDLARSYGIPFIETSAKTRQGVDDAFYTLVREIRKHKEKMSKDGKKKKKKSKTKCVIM

Compound	IC50 (KRAS G12S)	IC50 (KRAS G12D)	IC50 (KRAS WT)
Nc1nc2c(-c3c(Cl)cc4c(N5CC6(CCCCN6)C5)nc(OCC56CCCN5C[C@H](F)C6)nc4c3F)ccc(F)c2s1 (stereo partly drawn) [Compound 220, 4-(6-chloro-8-fluoro-2-(((2R)-2-fluorotetrahydro-1H-pyrrolizin-7a(5H)-yl)methoxy)-4-(2,5-diazaspiro[3.5]nonan-2-yl)quinazolin-7-yl)-7-fluorobenzo[d]thiazol-2-amine]		< 5 µM	< 5 µM
N#Cc1c(N)sc2c(F)ccc(-c3c(Cl)cc4c(N5CC[C@@]6(CCN6C(=O)n6cncn6)C5)nc(OC[C@@]56CCCN5C[C@H](F)C6)nc4c3F)c12 (single isomer, unassigned) [Compound 247]	< 5 µM		
Cc1ncn(C(=O)N2CC[C@]23CCN(c2nc(OC[C@@]45CCCN4C[C@H](F)C5)nc4c(F)c(-c5ccc(F)c6sc(N)c(C#N)c56)c(Cl)cc24)C3)n1 [Compound 250, 2-amino-4-(6-chloro-8-fluoro-2-(((2R,7aS)-2-fluorotetrahydro-1H-pyrrolizin-7a(5H)-yl)methoxy)-4-((S)-1-(3-methyl-1H-1,2,4-triazole-1-carbonyl)-1,6-diazaspiro[3.4]octan-6-yl)quinazolin-7-yl)-7-fluorobenzo[b]thiophene-3-carbonitrile]	< 5 µM		
Nc1nc2c(-c3c(Cl)cc4c(N5CC6(CNCCN6)C5)nc(OC[C@@]56CCCN5C[C@H](F)C6)nc4c3F)ccc(F)c2s1 [Compound 251, 4-(6-chloro-8-fluoro-2-(((2R,7aS)-2-fluorotetrahydro-1H-pyrrolizin-7a(5H)-yl)methoxy)-4-(2,5,8-triazaspiro[3.5]nonan-2-yl)quinazolin-7-yl)-7-fluorobenzo[d]thiazol-2-amine]	> 5 µM	< 5 µM	
N#Cc1c(N)sc2c(F)ccc(-c3c(Cl)cc4c(N5CCCCC6(CCCN6C(=O)n6cncn6)C5)nc(OC[C@@]56CCCN5C[C@H](F)C6)nc4c3F)c12 (stereo partly drawn) [Compound 231, 4-(4-(1-(1H-1,2,4-triazole-1-carbonyl)-1,7-diazaspiro[4.6]undecan-7-yl)-6-chloro-8-fluoro-2-(((2R,7aS)-2-fluorotetrahydro-1H-pyrrolizin-7a(5H)-yl)methoxy)quinazolin-7-yl)-2-amino-7-fluorobenzo[b]thiophene-3-carbonitrile]	< 5 µM		
N#Cc1c(N)sc2c(F)ccc(-c3c(Cl)cc4c(N5CCCC6(CCCN6C(=O)n6cncn6)C5)nc(OC[C@@]56CCCN5C[C@H](F)C6)nc4c3F)c12 (stereo partly drawn) [Compound 246, 4-(4-(1-(1H-1,2,4-triazole-1-carbonyl)-1,7-diazaspiro[4.5]decan-7-yl)-6-chloro-8-fluoro-2-(((2R,7aS)-2-fluorotetrahydro-1H-pyrrolizin-7a(5H)-yl)methoxy)quinazolin-7-yl)-2-amino-7-fluorobenzo[b]thiophene-3-carbonitrile]	< 5 µM		
Nc1nc2c(-c3c(Cl)cc4c(N5CCCC6(CCN6)C5)nc(OC[C@@]56CCCN5C[C@H](F)C6)nc4c3F)ccc(F)c2s1 (stereo partly drawn) [Compound 209, 4-(6-chloro-8-fluoro-2-(((2R,7aS)-2-fluorotetrahydro-1H-pyrrolizin-7a(5H)-yl)methoxy)-4-(1,6-diazaspiro[3.5]nonan-6-yl)quinazolin-7-yl)-7-fluorobenzo[d]thiazol-2-amine]	< 5 µM		

The next lines start with the values.

IC50 (KRAS G12S)	IC50 (KRAS G12D)	IC50 (KRAS WT)	Compound
< 5 µM	< 5 µM	< 5 µM	C[C@H]1N(c2nc(OC[C@@]34CCCN3C[C@H](F)C4)nc3c(F)c(-c4ccc(F)c5sc(N)c(C#N)c45)c(Cl)cc23)CC[C@@]12CCN2C(=O)n1cnc(C(F)F)n1 [Compound 325, 2-amino-4-(6-chloro-4-((4R,5R)-1-(3-(difluoromethyl)-1H-1,2,4-triazole-1-carbonyl)-5-methyl-1,6-diazaspiro[3.4]octan-6-yl)-8-fluoro-2-(((2R,7aS)-2-fluorotetrahydro-1H-pyrrolizin-7a(5H)-yl)methoxy)quinazolin-7-yl)-7-fluorobenzo[b]thiophene-3-carbonitrile]
< 5 µM			N#Cc1c(N)sc2c(F)ccc(-c3c(Cl)cc4c(N5CC6(CCN6C(=O)n6cncn6)CC5COC(F)F)nc(OC[C@@]56CCCN5C[C@H](F)C6)nc4c3F)c12 (stereo partly drawn) [Compound 348, 2-amino-4-(6-chloro-4-(7-((difluoromethoxy)methyl)-1-(1H-1,2,4-triazole-1-carbonyl)-1,6-diazaspiro[3.4]octan-6-yl)-8-fluoro-2-(((2R,7aS)-2-fluorotetrahydro-1H-pyrrolizin-7a(5H)-yl)methoxy)quinazolin-7-yl)-7-fluorobenzo[b]thiophene-3-carbonitrile]
< 5 µM			N#Cc1c(N)sc2c(F)ccc(-c3c(Cl)cc4c(N5CCC6(CCN6C(=O)n6cncn6)C5)nc(OC[C@@]56CCCN5C[C@H](F)C6)nc4c3F)c12 (stereo partly drawn) [Compound 272, 4-(4-(1-(1H-1,2,4-triazole-1-carbonyl)-1,6-diazaspiro[3.4]octan-6-yl)-6-chloro-8-fluoro-2-(((2R,7aS)-2-fluorotetrahydro-1H-pyrrolizin-7a(5H)-yl)methoxy)quinazolin-7-yl)-2-amino-7-fluorobenzo[b]thiophene-3-carbonitrile]
< 5 µM			N#CCC1CN(c2nc(OC[C@@]34CCCN3C[C@H](F)C4)nc3c(F)c(-c4ccc(F)c5sc(N)c(C#N)c45)c(Cl)cc23)CC12CCN2C(=O)n1cnc(C(F)F)n1 (stereo partly drawn) [Compound 330, (4R)-2-amino-4-(6-chloro-4-(8-(cyanomethyl)-1-(3-(difluoromethyl)-1H-1,2,4-triazole-1-carbonyl)-1,6-diazaspiro[3.4]octan-6-yl)-8-fluoro-2-(((2R,7aS)-2-fluorotetrahydro-1H-pyrrolizin-7a(5H)-yl)methoxy)quinazolin-7-yl)-7-fluorobenzo[b]thiophene-3-carbonitrile]
< 5 µM			N#Cc1c(N)sc2c(F)ccc(-c3c(Cl)cc4c(N5CCCC6(CCCN6)C5)nc(OC[C@@]56CCCN5C[C@H](F)C6)nc4c3F)c12 (stereo partly drawn) [Compound 252, 2-amino-4-(6-chloro-8-fluoro-2-(((2R,7aS)-2-fluorotetrahydro-1H-pyrrolizin-7a(5H)-yl)methoxy)-4-(1,7-diazaspiro[4.5]decan-7-yl)quinazolin-7-yl)-7-fluorobenzo[b]thiophene-3-carbonitrile]
< 5 µM			N#Cc1c(N)sc2c(F)ccc(-c3c(Cl)cc4c(N5CCCC6(CCN6)C5)nc(OC[C@@]56CCCN5C[C@H](F)C6)nc4c3F)c12 (stereo partly drawn) [Compound 260, 2-amino-4-(6-chloro-8-fluoro-2-(((2R,7aS)-2-fluorotetrahydro-1H-pyrrolizin-7a(5H)-yl)methoxy)-4-(1,6-diazaspiro[3.5]nonan-6-yl)quinazolin-7-yl)-7-fluorobenzo[b]thiophene-3-carbonitrile]
< 5 µM			C[C@H](Oc1nc(N2CC[C@@]3(CCN3C(=O)n3cncn3)C2)c2cc(Cl)c(-c3ccc(F)c4sc(N)c(C#N)c34)c(F)c2n1)[C@@H]1CCCN1C (single isomer, unassigned) [Compound 301]
< 5 µM			Cc1ncn(C(=O)N2CC[C@@]23CCN(c2nc(OC[C@@]45CCCN4C[C@H](F)C5)nc4c(F)c(-c5ccc(F)c6sc(N)c(C#N)c56)c(Cl)cc24)C3)n1 [Compound 339, 2-amino-4-(6-chloro-8-fluoro-2-(((2R,7aS)-2-fluorotetrahydro-1H-pyrrolizin-7a(5H)-yl)methoxy)-4-((R)-1-(3-methyl-1H-1,2,4-triazole-1-carbonyl)-1,6-diazaspiro[3.4]octan-6-yl)quinazolin-7-yl)-7-fluorobenzo[b]thiophene-3-carbonitrile]
